Laboratory results published in US7473790B2 (Pfizer Inc., priority 2003, dated 2009).
pIC50: −log10 of the molar value.

What follows are compounds tested against T1, HCV polymerase (Hepatitis C virus genotype 1b, UniProt P26663) (assay: HCV polymerase primer/template-directed transcription assay (32P-GTP incorporation, filter binding)). Details: recombinant HCV polymerase; 30 minutes at 30° C.; concentration giving 50% inhibition of polymerase-directed transcription; read-out: IC50.
T1 construct: 2.5 pmoles (0.15 μg) HCV polymerase protein in a final volume of 75 μL
T1 sequence (P26663 2420-3010): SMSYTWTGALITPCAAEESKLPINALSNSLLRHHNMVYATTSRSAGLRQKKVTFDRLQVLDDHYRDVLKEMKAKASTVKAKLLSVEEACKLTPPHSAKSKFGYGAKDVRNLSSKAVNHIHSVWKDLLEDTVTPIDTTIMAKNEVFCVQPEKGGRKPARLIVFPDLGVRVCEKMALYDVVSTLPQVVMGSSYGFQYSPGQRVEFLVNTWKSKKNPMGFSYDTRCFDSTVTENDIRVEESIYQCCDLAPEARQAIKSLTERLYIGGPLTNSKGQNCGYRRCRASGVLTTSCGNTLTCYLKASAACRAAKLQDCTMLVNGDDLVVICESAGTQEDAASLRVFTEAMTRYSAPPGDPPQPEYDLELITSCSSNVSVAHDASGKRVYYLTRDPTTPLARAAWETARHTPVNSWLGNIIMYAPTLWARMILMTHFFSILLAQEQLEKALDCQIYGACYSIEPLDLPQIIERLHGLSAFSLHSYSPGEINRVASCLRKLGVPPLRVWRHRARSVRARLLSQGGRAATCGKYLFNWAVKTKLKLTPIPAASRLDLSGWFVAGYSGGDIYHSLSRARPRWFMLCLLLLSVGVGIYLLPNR
Format: biochemical
Method in brief: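 IC50s come from triplicate cpm, refit with an enzyme-concentration (30 nM) correction when under 200 nM. Reactions ran 30 min at 30° C in Tris pH 7.2 with MgCl2, 1 μM GTP spiked with α-32P-GTP, biotin-dG12 primer and poly(rC)300 template, with 1% DMSO. Incorporated label was collected on DE filtermats and counted.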

Compound	pIC50
CC(C#N)c1ccc(CCC2(C3CCCC3)CC(=O)CC(=O)O2)cc1F (stereo not drawn) [A(241), 2-{4-[2-(2-Cyclopentyl-4,6-dioxo-tetrahydro-pyran-2-yl)-ethyl]-2-fluoro-phenyl}-propionitrile]	6.10
CCc1cnc2nc(CC3=C(O)CC(CCc4cc(F)c(C(C)(C)C#N)c(F)c4)(C4CCCC4)OC3=O)nn2c1 (stereo not drawn) [A(252), 2-(4-{2-[2-Cyclopentyl-5-(6-ethyl-[1,2,4]triazolo[1,5-a]pyrimidin-2-ylmethyl)-4-hydroxy-6-oxo-3,6-dihydro-2H-pyran-2-yl]-ethyl}-2,6-difluoro-phenyl)-2-methyl-propionitrile]	8.00
Cc1ccn2nc(CC3=C(O)CC(CCc4cc(F)c(C(C)(C)C#N)c(F)c4)(C4CCCC4)OC3=O)nc2n1 (stereo not drawn) [A(253), 2-(4-{2-[2-Cyclopentyl-4-hydroxy-5-(5-methyl-[1,2,4]triazolo[1,5-a]pyrimidin-2-ylmethyl)-6-oxo-3,6-dihydro-2H-pyran-2-yl]-ethyl}-2,6-difluoro-phenyl)-2-methyl-propionitrile]	8.22
Cc1cnc2nc(CC3=C(O)CC(CCc4cc(F)c(C5(C#N)CC5)c(F)c4)(C4CCCC4)OC3=O)nn2c1 (stereo not drawn) [A(254)]	7.92
N#CC1(c2c(F)cc(CCC3(C4CCCC4)CC(=O)CC(=O)O3)cc2F)CC1 (stereo not drawn) [A(255), 1-{4-[2-(2-Cyclopentyl-4,6-dioxo-tetrahydro-pyran-2-yl)-ethyl]-2,6-difluoro-phenyl}-cyclopropanecarbonitrile]	5.72
COc1cc(C(C)(C)C#N)c(F)cc1CCC1(C2CCCC2)CC(O)=C(Cc2nc3ncc(C)cn3n2)C(=O)O1 (stereo not drawn) [A(261), 2-(4-{2-[2-Cyclopentyl-4-hydroxy-5-(6-methyl-[1,2,4]triazolo[1,5-a]pyrimidin-2-ylmethyl)-6-oxo-3,6-dihydro-2H-pyran-2-yl]-ethyl}-2-fluoro-5-methoxy-phenyl)-2-methyl-propionitrile]	8.40
CCNC(=O)C(C)(C)c1ccc(CCC2(C3CCCC3)CC(O)=C(Cc3nc4ncc(C)cn4n3)C(=O)O2)cc1F (stereo not drawn) [A(268), 2-(4-{2-[2-Cyclopentyl-4-hydroxy-5-(6-methyl-[1,2,4]triazolo[1,5-a]pyrimidin-2-ylmethyl)-6-oxo-3,6-dihydro-2H-pyran-2-yl]-ethyl}-2-fluoro-phenyl)-N-ethyl-isobutyramide]	6.17
Cc1cnc2nc(CC3=C(O)CC(CCc4ccc(C(C)(C)CO)c(F)c4)(C4CCCC4)OC3=O)nn2c1 (stereo not drawn) [A(269), 6-Cyclopentyl-6-{2-[3-fluoro-4-(2-hydroxy-1,1-dimethyl-ethyl)-phenyl]-ethyl}-4-hydroxy-3-(6-methyl-[1,2,4]triazolo[1,5-a]pyrimidin-2-ylmethyl)-5,6-dihydro-pyran-2-one]	7.59
COC(=O)C(C)(C)c1ccc(CCC2(C3CCCC3)CC(O)=C(Cc3nc4ncc(C)cn4n3)C(=O)O2)cc1F (stereo not drawn) [A(270), 2-(4-{2-[2-Cyclopentyl-4-hydroxy-5-(6-methyl-[1,2,4]triazolo[1,5-a]pyrimidin-2-ylmethyl)-6-oxo-3,6-dihydro-2H-pyran-2-yl]-ethyl}-2-fluoro-phenyl)-2-methyl-propionic acid methyl ester]	7.43
COc1ccc(CCC2(C3CCCC3)CC(O)=C(Cc3nc4nc(C)cc(C)n4n3)C(=O)O2)cc1F (stereo not drawn) [B(01)]	7.82
CCOc1ccc(CCC2(C3CCCC3)CC(O)=C(Cc3nc4nc(C)cc(C)n4n3)C(=O)O2)cc1F (stereo not drawn) [B(02), 6-Cyclopentyl-3-(5,7-dimethyl-[1,2,4]triazolo[1,5-a]pyrimidin-2-ylmethyl)-6-[2-(4-ethoxy-3-fluoro-phenyl)-ethyl]-4-hydroxy-5,6-dihydro-pyran-2-one]	7.57
Cc1cc(C)n2nc(CC3=C(O)CC(CCc4cccc(C(C)(C)C)c4)(C4CCCC4)OC3=O)nc2n1 (stereo not drawn) [B(03), 6-[2-(3-tert-Butyl-phenyl)-ethyl]-6-cyclopentyl-3-(5,7-dimethyl-[1,2,4]triazolo[1,5-a]pyrimidin-2-ylmethyl)-4-hydroxy-5,6-dihydro-pyran-2-one]	8.30
Cc1cc(C)n2nc(CC3=C(O)CC(CCc4ccc(-c5c(C)noc5C)cc4)(C4CCCC4)OC3=O)nc2n1 (stereo not drawn) [B(04), 6-Cyclopentyl-6-{2-[4-(3,5-dimethyl-isoxazol-4-yl)-phenyl]-ethyl}-3-(5,7-dimethyl-[1,2,4]triazolo[1,5-a]pyrimidin-2-ylmethyl)-4-hydroxy-5,6-dihydro-pyran-2-one]	7.62
COc1ccc(CCC2(C3CCCC3)CC(O)=C(Cc3ccc(-c4csnn4)cc3)C(=O)O2)cc1Cl (stereo not drawn) [B(05), 6-[2-(3-Chloro-4-methoxy-phenyl)-ethyl]-6-cyclopentyl-4-hydroxy-3-(4-[1,2,3]thiadiazol-4-yl-benzyl)-5,6-dihydro-pyran-2-one]	6.89
COc1ccc(CCC2(C3CCCC3)CC(O)=C(Cc3ccc(-n4c(C)ccc4C)cc3)C(=O)O2)cc1Cl (stereo not drawn) [B(06), 6-[2-(3-Chloro-4-methoxy-phenyl)-ethyl]-6-cyclopentyl-3-[4-(2,5-dimethyl-pyrrol-1-yl)-benzyl]-4-hydroxy-5,6-dihydro-pyran-2-one]	6.82
CCc1cc(CCC2(C3CCCC3)CC(O)=C(Cc3nc4nc(C)cc(C)n4n3)C(=O)O2)ccc1O (stereo not drawn) [B(07), 6-Cyclopentyl-3-(5,7-dimethyl-[1,2,4]triazolo[1,5-a]pyrimidin-2-ylmethyl)-6-[2-(3-ethyl-4-hydroxy-phenyl)-ethyl]-4-hydroxy-5,6-dihydro-pyran-2-one]	9.00
Cc1cc(C)n2nc(CC3=C(O)CC(CCc4ccc(O)c(C(C)(C)C)c4)(C4CCCC4)OC3=O)nc2n1 (stereo not drawn) [B(08), 6-[2-(3-tert-Butyl-4-hydroxy-phenyl)-ethyl]-6-cyclopentyl-3-(5,7-dimethyl-[1,2,4]triazolo[1,5-a]pyrimidin-2-ylmethyl)-4-hydroxy-5,6-dihydro-pyran-2-one]	7.89
COc1ccc(CCC2(C3CCCC3)CC(O)=C(Cc3nc4nc(C)cc(C)n4n3)C(=O)O2)cc1C (stereo not drawn) [B(09), 6-Cyclopentyl-3-(5,7-dimethyl-[1,2,4]triazolo[1,5]pyrimidin-2-ylmethyl)-4-hydroxy-6-[2-(4-methoxy-3-methyl-phenyl)-ethyl]-5,6-dihydro-pyran-2-one]	7.27
CCOc1ccc(CCC2(C3CCCC3)CC(O)=C(Cc3nc4nc(C)cc(C)n4n3)C(=O)O2)cc1C (stereo not drawn) [B(10), 6-Cyclopentyl-3-(5,7-dimethyl-[1,2,4]triazolo[1,5]pyrimidin-2-ylmethyl)-6-[2-(4-ethoxy-3-methyl-phenyl)-ethyl]-4-hydroxy-5,6-dihydro-pyran-2-one]	7.28
Cc1cc(C)n2nc(CC3=C(O)CC(CCc4ccc(OC(C)C)c(C)c4)(C4CCCC4)OC3=O)nc2n1 (stereo not drawn) [B(11), 6-Cyclopentyl-3-(5,7-dimethyl-[1,2,4]triazolo[1,5]pyrimidin-2-ylmethyl)-4-hydroxy-6-[2-(4-isopropoxy-3-methyl-phenyl)-ethyl]-5,6-dihydro-pyran-2-one]	7.72
CCc1cccc(CCC2(C3CCCC3)CC(O)=C(Cc3nc4nc(C)cc(C)n4n3)C(=O)O2)c1 (stereo not drawn) [B(12), 6-Cyclopentyl-3-(5,7-dimethyl-[1,2,4]triazolo[1,5]pyrimidin-2-ylmethyl)-6-[2-(3-ethyl-phenyl)-ethyl]-4-hydroxy-5,6-dihydro-pyran-2-one]	7.59
COc1ccc(CCC2(C3CCCC3)CC(O)=C(Cc3nc4nc(C)cc(C)n4n3)C(=O)O2)cc1Cl (stereo not drawn) [B(13), 6-[2-(3-Chloro-4-methoxy-phenyl)-ethyl]-6-cyclopentyl-3-(5,7-dimethyl-[1,2,4]triazolo[1,5-a]pyrimidin-2-ylmethyl)-dihydro-pyran-2,4-dione]	7.70
CC(C)Oc1ccc(CCC2(C3CCCC3)CC(O)=C(Cc3nc4cc(Cl)ccc4n3C(C)C)C(=O)O2)cc1F (stereo not drawn) [B(14), 3-(5-Chloro-1-isopropyl-1H-benzoimidazol-2-ylmethyl)-6-cyclopentyl-6-[2-(3-fluoro-4-isopropoxy-phenyl)-ethyl]-4-hydroxy-5,6-dihydro-pyran-2-one]	6.20
CC(C)Oc1ccc(CCC2(C3CCCC3)CC(O)=C(Cc3nc4ccccc4n3C)C(=O)O2)cc1F (stereo not drawn) [B(16), 6-Cyclopentyl-6-[2-(3-fluoro-4-isopropoxy-phenyl)-ethyl]-4-hydroxy-3-(1-methyl-1H-benzoimidazol-2-ylmethyl)-5,6-dihydro-pyran-2-one]	6.05
COc1ccc(CC2=C(O)CC(CCc3ccc(OC)c(Cl)c3)(C3CCCC3)OC2=O)cc1 (stereo not drawn) [B(17), 6-[2-(3-Chloro-4-methoxy-phenyl)-ethyl]-6-cyclopentyl-4-hydroxy-3-(4-methoxy-benzyl)-5,6-dihydro-pyran-2-one]	5.96
Cc1cc(C)n2nc(CC3=C(O)CC(CCc4ccc(OC(C)C)c(F)c4)(C4CCCC4)OC3=O)nc2n1 (stereo not drawn) [B(18)]	7.68
Cc1cc(C)n2nc(CC3=C(O)CC(CCc4ccc(F)c(Cl)c4)(C4CCCC4)OC3=O)nc2n1 (stereo not drawn) [B(19), 6-[2-(3-Chloro-4-fluoro-phenyl)-ethyl]-6-cyclopentyl-3-(5,7-dimethyl-[1,2,4]triazolo[1,5]pyrimidin-2-ylmethyl)-4-hydroxy-5,6-dihydro-pyran-2-one]	7.22
CCOc1ccc(CCC2(C3CCCC3)CC(O)=C(Cc3nc4nc(C)cc(C)n4n3)C(=O)O2)cc1Cl (stereo not drawn) [B(20), 6-[2-(3-Chloro-4-ethoxy-phenyl)-ethyl]-6-cyclopentyl-3-(5,7-dimethyl-[1,2,4]triazolo[1,5]pyrimidin-2-ylmethyl)-4-hydroxy-5,6-dihydro-pyran-2-one]	8.40
COc1ccc(CCC2(C3CCCC3)CC(O)=C(Cc3ccc(S(C)(=O)=O)cc3)C(=O)O2)cc1Cl (stereo not drawn) [B(21), 6-[2-(3-Chloro-4-methoxy-phenyl)-ethyl]-6-cyclopentyl-4-hydroxy-3-(4-methanesulfonyl-benzyl)-5,6-dihydro-pyran-2-one]	6.40
COc1ccc(CCC2(C3CCCC3)CC(O)=C(Cc3ccc(C#N)cc3)C(=O)O2)cc1Cl (stereo not drawn) [B(22), 4-{6-[2-(3-Chloro-4-methoxy-phenyl)-ethyl]-6-cyclopentyl-4-hydroxy-2-oxo-5,6-dihydro-2-pyran-3-ylmethyl}-benzonitrile]	5.92
